From US7166694B2, “Vaccine against cancerous diseases which is based on mimotopes of antigens expressed on tumor cells” (priority 2000, dated 2007)
Marks after values point to notes of the source that are not given here.

Columns and labels:
SKBR3 membranes = test: ELISA of control antibody binding to SKBR3 membranes; details: control antibody against CD20
Description: (§1) The wells of a 96-well ELISA plate (Nunc) were coated with membrane fractions of the Her-2/neu overexpressing cell line SKBR3 and as a control for non-specific antibody bonds with membrane fractions of the Her-2/neu negative cell line HTB 132 in PBS overnight.
(§2) The next day, non-specific binding sites were blocked by 3 percent BSA in PBS. Herceptin as well as herceptin after preincubation with relevant and irrelevant phage mimotopes or by mimotopes on KLH as well as on KLH alone were applied to the coated, blocked ELISA plate in a repeated test. […] HRP enters into a color reaction with the substrate. The result of this color reaction can be quantified by photometer. The absorption coefficient of 450/630 nm (OD) is determined.

Her-2/neu = test: ELISA inhibition of the binding of herceptin and HER-2/neu (SKBR3 membranes) by mimotopes; details: in comparison to uninhibited herceptin control in ELISA, herceptin preincubated overnight
Description: For the ELISA inhibition assay one tries to prevent this bond by preincubation with mimotopes on phages or KLH as carrier.
as §1, §2

Row | Substance | signal on SKBR3 membranes (SKBR3 membranes) | Inhibition of herceptin binding with phage mimotopes (Her-2/neu)
1 | Rituximab: humanized monoclonal antibody directed against the phosphoprotein surface antigen on lymphocytes, CD20; control antibody | could not produce any signal | 
2 | phage mimotope SEQ ID NO: 9: phage mimotope CHPTLLWPDFC (homo sapiens) |  | 30.2* Percent
